From patent US20110065783A1, “HYDROXYLATED NEBIVOLOL METABOLITES” (priority 2005, published 2011) come the findings set out here.

The term pEC50 denotes −log10 of the EC50, conventionally taken in molar units.

Assay [1] concerns human umbilical vein endothelial cells (HUVEC). The assay is described as follows: Peak NO release from HUVEC after acute treatment (porphyrinic probe). The class given is cell-based. How it is done:
All measurements presented are recorded in vitro using a sensitive porphyrinic probe. NO release is measured directly from human umbilical vein endothelial cells (HUVEC). HUVEC cells were obtained from American Type Culture Collection (Manassas, Va.) and grown in Ham's F12K medium with 2 mM L-glutamine adjusted to contain 1.5 g/l sodium bicarbonate and supplemented with 0.1 mg/ml heparin and 0.03-0.05 mg/ml endothelial cell growth supplement (ECGS)=10% fetal bovine serum. The HUVEC cells were kept in an atmosphere of elevated CO2 concentration (5%). Nebivolol, its enantiomers, and nebivolol metabolites including the nebivolol glucuronides, 4-hydroxy-5′ phenol metabolite, 4-hydroxy-8′-phenol metabolite, 4-hydroxy, 5-hydroxy, 8-hydroxy metabolites, N-DAD, N-DACA and N-DAAA, are obtained from Mylan Laboratories (Morgantown, W. Va.)
All measurements of endothelial NO release are conducted in Hank's balance solution at 37° C. Cell wells are transferred to a Faraday cage and a porphyrinic sensor (diameter 0.5 mm) is positioned at a distance of 5±2 μm from the surface of the endothelial cells using an inverted microscope (Leica Microsystems, Wetzler, Germany) and a computer-assisted micromanipulator. The sensor operates with a three-electrode system: nanosensor (working electrode), saturated calomel electrode (reference electrode) and platinum wire (counter electrode, 0.5 mm diameter). The three electrodes are connected to a potentiostat/galvanostat PAR273. The baseline is stabilized after about 20 seconds. The test compounds are injected with a nanoinjector on to the surface of the cells following solubilization in buffer. The current proportional to the NO concentration is measured with the sensor, which operates in amperometric mode at a constant potential of 0.63V. Data are acquired with the use of an IBM computer with custom software and amperograms (current vs. time curves) and are recorded with a Guniry FAS1 Femtostat (Warminster, Pa.).
Nanosensors are prepared from carbon fibers. The size of the tip of carbon fiber is reduced from 6 μm to less than 1 μm by temperature controlled burning. The sensors are sensitized to NO by deposition of electrically conductive polymeric porphyrin and covered with a thin layer of Nafion. The prophyrinic microsensor has a response time of 0.1 ms at a micromolar NO concentration and 10 ms at the detection limit of 1 nM.
The nanosensor for NO is calibrated using saturated solution (concentration 1.82 mM verified with the coulometric method). Linear calibration curves are constructed for each sensor from […] before and after measurements of cell activity. The data are presented as the mean±SEM for each of the triplicate measurements. The data (calculation and plotting) are transferred to Microcal Origin Software (OriginLab Corp., Northampton, Mass.).
The HUVEC preparation is stable over the course of these experiments with the cells remaining viable in culture for >24 hours. Under non-stimulating conditions, basal levels of NO release are very low (<30 nM). Measurement of NO release as a function of treatment is conducted in individual endothelial cells. Multiple measurements of NO release can be conducted on single cells following a brief refractory period. For robust statistical analysis, separate cells are used for each concentration and type of drug used in these analyses.

For assay [2], the system named is HUVECs isolated from White and Black American donors. The assay is described as follows: Acute NO release from endothelial cells of White and Black American donors (electrochemical nanosensors). The class given is cell-based, human. The following applies: for NO (nM), Black Donors, acute NO release / NO (nM), White Donors, acute NO release: acute drug treatment 1.0 μM, mean±S.D. (n=5); for NO (nM), Black Donors, acute NO release: HUVECs from Black American donors; for NO (nM), White Donors, acute NO release: HUVECs from White donors. From the text:
Values are mean±S.D. (n=5).
The 4′(R)-hydroxy-5-fluoro-l-nebivolol metabolite also exceeds the activity of nebivolol and even l-nebivolol by >50%. These findings indicate that hydroxy metabolites of nebivolol have distinct and highly reproducible effects on acute NO release in human endothelial cells.
In Table 1 and FIG. 7, the comparative effects of nebivolol, d-nebivolol, l-nebivolol and six stereoselective hydroxy metabolites on NO release are shown for cells harvested from white (open bars) and black American (solid bars) donors. The release of the NO from these endothelial cells was evaluated with electrochemical nanosensors placed within close proximity to the cell surface. […] The 4′(R)-hydroxy-5-fluoro-l-nebivolol metabolite (1689-64B) also exceeds the activity of l-nebivolol by >50%. The metabolite with the least activity is similar to nebivolol. These findings indicate that hydroxy metabolites of nebivolol have distinct and highly reproducible effects on acute NO release in human endothelial cells.

In assay [3] the test system is human endothelial cells. The assay is described as follows: Capacity for NO release in human endothelial cells following chronic administration. The format is cell-based.

pEC50: −log10 of the molar value.

For the molecule `OC(CNCC(O)C1CCc2cc(F)ccc2O1)C1CCc2cc(F)ccc2O1` (racemic) [nebivolol], in assay [1] (5 μM, acute, FIG. 4), the NO peak release is reported as roughly 225 nm. Further, in assay [2], the “NO (nM), Black Donors, acute NO release” value turned out to be 148 ± 10 nM and the “NO (nM), White Donors, acute NO release” value is given as 218 ± 11 nM.

`Oc1cc2c(cc1F)OC(C(O)CNCC(O)C1C[C@H](O)c3cc(F)ccc3O1)CC2` (stereo partly drawn) [4 (S)-Hydroxy-7′-fluoro-6′-hydroxy-l-nebivolol]: in assay [2], the “NO (nM), Black Donors, acute NO release” value worked out at 242 ± 12 nM and the “NO (nM), White Donors, acute NO release” value is on record as 272 ± 12 nM.

In the case of `OC(CNCC(O)C1C[C@H](O)c2cc(F)ccc2O1)C1CCc2cc(F)ccc2O1` (stereo partly drawn) [4(S)-Hydroxy-l-nebivolol], in assay [2], the “NO (nM), Black Donors, acute NO release” value was 151 ± 8 nM and the “NO (nM), White Donors, acute NO release” value was 204 ± 12 nM.

Consider `OC1CC(C(O)CNCC(O)C2CCc3cc(F)ccc3O2)Oc2ccc(F)cc21` (stereo not drawn) [4-hydroxy nebivolol], for which, in assay [1] (5 μM, acute, FIG. 4), the “NO release compared with reference agents (in words)” value is listed as “approximates values measured with acetylcholine” and the “peak NO release” value is given as “exceeds 400 nM”. Moreover, the “NO release from human endothelial cells, concentration dependence (in words)” value in assay [1] (acute administration) is on record as “increase NO release from human endothelial cell in concentration dependent fashion”. Besides, the pEC50 in assay [1] (acute, concentration-response, FIG. 6) was 6.30. Further, the “capacity for NO release following chronic administration (in words)” value in assay [3] was “increase the capacity for NO release”.

Take `Oc1ccc2c(c1F)CCC(C(O)CNCC(O)C1C[C@@H](O)c3cc(F)ccc3O1)O2` (stereo partly drawn) [4′(R)-Hydroxy-5-fluoro-6-hydroxy-l-nebivolol]: in assay [2], the “NO (nM), Black Donors, acute NO release” value is 316 ± 17 nM and the “NO (nM), White Donors, acute NO release” value is recorded as 407 ± 27 nM. Moreover, the “NO release activity in excess of l-nebivolol” value in assay [2] (acute treatment, compared with l-nebivolol (b247 also nebivolol)) is recorded as greater than 50%.

As for `Oc1cc2c(cc1F)OC(C(O)CNCC(O)C1C[C@@H](O)c3cc(F)ccc3O1)CC2` (stereo partly drawn) [4′(R)-Hydroxy-7-fluoro-6-hydroxy-l-nebivolol], in assay [2], the “NO (nM), Black Donors, acute NO release” value is listed as 383 ± 18 nM and the “NO (nM), White Donors, acute NO release” value worked out at 476 ± 20 nM. In addition, the “NO release, black donors” value in assay [2] (acute treatment, endothelial cells from black donors) was found to be 383 ± 18 nmol/L. Further, the “NO release, white donors” value in assay [2] (acute treatment, endothelial cells from white donors) turned out to be 476 ± 20 nmol/L. Moreover, the “increase in NO release as compared to nebivolol” value in assay [2] (acute treatment, white and black donors) was “nearly two-fold increase”.

As for `OC(CNCC(O)C1C[C@@H](O)c2cc(F)ccc2O1)C1CCc2cc(F)ccc2O1` (stereo partly drawn) [4′(R)-Hydroxy-l-nebivolol], in assay [2], the “NO (nM), Black Donors, acute NO release” value turned out to be 194 ± 10 nM and the “NO (nM), White Donors, acute NO release” value was determined as 237 ± 11 nM.

Regarding `Oc1ccc2c(c1F)CCC(C(O)CNCC(O)C1CCc3cc(F)ccc3O1)O2` (stereo not drawn) [5-fluoro-6-hydroxy-l-nebivolol], in assay [2], the “NO (nM), Black Donors, acute NO release” value is listed as 212 ± 9 nM and the “NO (nM), White Donors, acute NO release” value was found to be 258 ± 20 nM.

In the case of `Oc1c(F)ccc2c1CCC(C(O)CNCC(O)C1CCc3cc(F)ccc3O1)O2` (stereo not drawn) [5-hydroxy nebivolol], the “peak NO release” value in assay [1] (10 μM, acute, FIG. 3) is recorded as “approximately 220 nM”.

As for `Oc1cc(F)cc2c1OC(C(O)CNCC(O)C1CCc3cc(F)ccc3O1)CC2` (stereo not drawn) [8-hydroxy nebivolol], in assay [1] (10 μM, acute, FIG. 3), the “peak NO release” value is given as “approximately 220 nM”.

For `O[C@H](CNC[C@@H](O)[C@H]1CCc2cc(F)ccc2O1)[C@@H]1CCc2cc(F)ccc2O1` [d-nebivolol, reference compound], in assay [2], the “NO (nM), Black Donors, acute NO release” value is listed as 87 ± 6 nM and the “NO (nM), White Donors, acute NO release” value is 127 ± 17 nM.

For `O[C@@H](CNC[C@H](O)[C@H]1CCc2cc(F)ccc2O1)[C@@H]1CCc2cc(F)ccc2O1` [l-nebivolol, reference compound], in assay [2], the “NO (nM), Black Donors, acute NO release” value was determined as 192 ± 9 nM and the “NO (nM), White Donors, acute NO release” value came to 268 ± 12 nM.
